Results: ChEMBL document CHEMBL1201862, “PubChem BioAssay data set” (2004)
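Results reflect a 48-hour exposure of cells in 96-well plates to compound at five concentrations. GI50 marks 50% less growth.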 The source made the active and inactive calls. Cut-off read from the data, not from the text of the source: active = GI50 up to about 1.1 µM and inactive = higher.

How the values were obtained:
Test in all cases: inhibition of tumour cell growth, NCI panel, 48 h
IGROV-1 = test system: IGROV-1
SF-295 = test system: SF-295
SK-MEL-28 = test system: SK-MEL-28
MDA-N = test system: MDA-N
786-0 = test system: 786-0
NCI-H226 = test system: NCI-H226
Malme-3M = test system: Malme-3M
SK-MEL-5 = test system: SK-MEL-5
HOP-92 = test system: HOP-92
A549 = test system: A549
SW-620 = test system: SW-620
SN12C = test system: SN12C
MCF7 = test system: MCF7
HT-29 = test system: HT-29
NCI-H23 = test system: NCI-H23
NCI-H522 = test system: NCI-H522
OVCAR-5 = test system: OVCAR-5
U-251 = test system: U-251
A498 = test system: A498

SMILES | GI50 (IGROV-1) | GI50 (SF-295) | GI50 (SK-MEL-28) | GI50 (MDA-N) | GI50 (786-0) | GI50 (NCI-H226) | GI50 (Malme-3M) | GI50 (SK-MEL-5) | GI50 (HOP-92) | GI50 (A549) | GI50 (SW-620) | GI50 (SN12C) | GI50 (MCF7) | GI50 (HT-29) | GI50 (NCI-H23) | GI50 (NCI-H522) | GI50 (OVCAR-5) | GI50 (U-251) | GI50 (A498)
CC(C)(C)C1=NC(=S)SC2=NC(=O)C3(NN21)c1ccccc1-c1ccccc13 | > 10 µM (inactive) | > 10 µM (inactive) | > 10 µM (inactive) | 8.41 µM (inactive) | 9.57 µM (inactive) | 6.07 µM (inactive) | > 10 µM (inactive) | 3.44 µM (inactive) | > 10 µM (inactive) | 7.26 µM (inactive) | > 10 µM (inactive) | > 10 µM (inactive) | 4.43 µM (inactive) | > 10 µM (inactive) | > 10 µM (inactive) | 9.25 µM (inactive) |  |  | 
COc1cc2nc(-c3cccs3)nc(Nc3cccc(Cl)c3)c2cc1OC | 61.1 µM (inactive) | 22.5 µM (inactive) | 81.8 µM (inactive) |  | 53.2 µM (inactive) | 50.6 µM (inactive) | 27.7 µM (inactive) | > 100 µM (inactive) | 55 µM (inactive) | 50.9 µM (inactive) | > 100 µM (inactive) | > 100 µM (inactive) | 53.6 µM (inactive) | > 100 µM (inactive) | 54.6 µM (inactive) | 64.6 µM (inactive) | > 100 µM (inactive) | 35.9 µM (inactive) | > 100 µM (inactive)
CN(c1ccc(Cl)cc1)S(=O)(=O)c1cccc([N+](=O)[O-])c1 | > 100 µM (inactive) | > 100 µM (inactive) | 95.9 µM (inactive) | 67.9 µM (inactive) | > 100 µM (inactive) | 53.8 µM (inactive) | 69.2 µM (inactive) | 27.4 µM (inactive) |  | > 100 µM (inactive) | 70.5 µM (inactive) | > 100 µM (inactive) | 56.1 µM (inactive) | 22.5 µM (inactive) | 34.7 µM (inactive) | 65.5 µM (inactive) | 87.3 µM (inactive) | 64.4 µM (inactive) | 
O=S(=O)(c1ccccc1)n1c(C(O)c2ccccc2)cc2ccccc21 (configuration not stated) | 15.5 µM (inactive) | 16.9 µM (inactive) | 19.6 µM (inactive) |  | 14.1 µM (inactive) | 13.1 µM (inactive) | 18.3 µM (inactive) | 14.6 µM (inactive) | 12.7 µM (inactive) | 14.5 µM (inactive) | 24 µM (inactive) |  | 21.2 µM (inactive) | 13.4 µM (inactive) | 18.9 µM (inactive) |  | 15.7 µM (inactive) | 16.7 µM (inactive) | 10.2 µM (inactive)
CCCCCCc1cc2cc(-c3cn4ccsc4n3)c(=O)oc2cc1O | > 100 µM (inactive) | > 100 µM (inactive) | > 25.4 µM (inactive) |  | > 56.9 µM (inactive) | > 100 µM (inactive) |  | > 30.9 µM (inactive) | > 100 µM (inactive) | > 100 µM (inactive) | > 79.6 µM (inactive) | > 100 µM (inactive) | 99.5 µM (inactive) | > 100 µM (inactive) | > 82 µM (inactive) | 29.2 µM (inactive) | > 100 µM (inactive) | 45.6 µM (inactive) | > 100 µM (inactive)
O=C(NCCO)c1ccc(Cl)cc1 | > 100 µM (inactive) | > 100 µM (inactive) | > 100 µM (inactive) | > 100 µM (inactive) | > 100 µM (inactive) | > 100 µM (inactive) | > 100 µM (inactive) | > 100 µM (inactive) | > 100 µM (inactive) | > 100 µM (inactive) | > 100 µM (inactive) | > 100 µM (inactive) |  | > 100 µM (inactive) | > 100 µM (inactive) | > 100 µM (inactive) | > 100 µM (inactive) | > 100 µM (inactive) | > 100 µM (inactive)
Nc1ccc(C(=O)NN2C(=O)[C@H](Cl)C2c2ccc(Cl)cc2)cc1 (some centres not stated) | 1.65 µM (inactive) | 4.55 µM (inactive) | 0.265 µM (active) |  | 1.32 µM (inactive) | 0.714 µM (active) | 2.21 µM (inactive) | 1.93 µM (inactive) | 1.87 µM (inactive) | 2.45 µM (inactive) | 2.11 µM (inactive) | 1.04 µM (active) | 1.17 µM (inactive) | 0.156 µM (active) | 0.869 µM (active) | 2.03 µM (inactive) | 4.2 µM (inactive) | 1.22 µM (inactive) | 
NCCC1(N)CCNCC1 | > 100 µM (inactive) | > 100 µM (inactive) | 48.4 µM (inactive) | > 100 µM (inactive) | > 100 µM (inactive) | > 100 µM (inactive) | > 100 µM (inactive) | > 100 µM (inactive) | < 0.01 µM (active) | > 100 µM (inactive) | > 100 µM (inactive) | > 100 µM (inactive) |  | > 100 µM (inactive) | > 100 µM (inactive) | > 100 µM (inactive) | > 100 µM (inactive) | > 100 µM (inactive) | > 100 µM (inactive)
CC(C)CCC(=O)c1ccoc1 [PERILLAKETONE] | > 100 µM (inactive) | > 100 µM (inactive) | > 100 µM (inactive) | > 100 µM (inactive) | > 100 µM (inactive) | > 100 µM (inactive) | > 100 µM (inactive) | > 100 µM (inactive) | > 100 µM (inactive) | > 100 µM (inactive) | > 100 µM (inactive) | > 100 µM (inactive) | > 100 µM (inactive) | > 100 µM (inactive) | > 100 µM (inactive) |  | > 100 µM (inactive) | > 100 µM (inactive) | 
O=[N+]([O-])c1ccc2nc(Nc3ccccc3)c(Nc3ccccc3)nc2c1 | 1.58 µM (inactive) | 1.14 µM (inactive) | 2.45 µM (inactive) | 0.553 µM (active) | 1.49 µM (inactive) | 2.4 µM (inactive) | 1.84 µM (inactive) | 1.49 µM (inactive) | 1.63 µM (inactive) | 0.349 µM (active) | 1.56 µM (inactive) | 1.18 µM (inactive) |  | 0.463 µM (active) | 1.17 µM (inactive) | 0.369 µM (active) | 2.64 µM (inactive) | 0.512 µM (active) | 0.929 µM (active)
O=c1ccn2n1CCCCC2 | > 100 µM (inactive) | > 100 µM (inactive) | > 100 µM (inactive) | > 100 µM (inactive) | > 100 µM (inactive) | > 100 µM (inactive) | > 100 µM (inactive) | > 100 µM (inactive) | > 100 µM (inactive) | > 100 µM (inactive) | > 100 µM (inactive) | > 100 µM (inactive) |  | > 100 µM (inactive) | > 100 µM (inactive) | > 100 µM (inactive) | > 100 µM (inactive) | > 100 µM (inactive) | > 100 µM (inactive)
O=[N+]([O-])c1ccc(S(=O)(=O)n2c3ccc(Br)cc3c3nc4ccccc4nc32)cc1 | > 100 µM (inactive) | > 100 µM (inactive) | > 100 µM (inactive) | > 100 µM (inactive) | > 100 µM (inactive) | 24 µM (inactive) |  | > 100 µM (inactive) | > 100 µM (inactive) | > 100 µM (inactive) | > 100 µM (inactive) | > 100 µM (inactive) |  | > 100 µM (inactive) | > 100 µM (inactive) | > 100 µM (inactive) | > 100 µM (inactive) | > 100 µM (inactive) | > 100 µM (inactive)
